Source: BindingDB's records for patent US11802108 (The University Court of The University of Edinburgh, 2023)

Biological target: Peptidyl-prolyl cis-trans isomerase A (Homo sapiens, UniProt P62937)
Assay: Isothermal Titration Calorimetry (ITC)
Description: The buffer used in the titrations of the compounds belonging to the ester series was 50 mM phosphate buffer, pH 6.5 and the concentration of DMSO was 2% v/v for all the compounds, unless otherwise stated in Table 51. […] Control experiments were performed, where each compound was titrated into buffer and when small amount of heat was detected due to heat of dilution, it was subtracted when processing the data using a linear fit method. In all cases the first injection was omitted from the data processing. All data were analysed using the MicroCal PEAQ-ITC Analysis software.

Peptidyl-prolyl cis-trans isomerase A, sequence (P62937 whole entry): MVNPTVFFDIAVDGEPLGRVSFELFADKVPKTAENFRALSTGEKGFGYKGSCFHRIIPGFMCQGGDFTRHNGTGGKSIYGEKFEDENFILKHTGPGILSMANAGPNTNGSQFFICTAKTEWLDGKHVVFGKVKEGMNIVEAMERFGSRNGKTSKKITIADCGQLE

CCOC(=O)CNC(=O)N(Cc1ccc(N)cc1)Cc1cn(CC(=O)OCC)nn1 [US11802108, Compound 20]
Kd: > 600 µM
